The numbers were not newly measured in EP3646858A1, “ENCAPSULATED FORMULATIONS” (Pharmalink, SL, priority 2017, dated 2019), which cites them from elsewhere.

The conditions of this data set: association with piperine; inhibition of hepatic and intestinal glucuronidation.

On to `COc1cc(/C=C/C(=O)CC(=O)/C=C/c2ccc(O)c(OC)c2)ccc1O` [curcumin], for which the “increase of the bioavailability of curcumin” value was 20 fold.
